Experimental data from patent publication US7132287B2, “Method for neural stem cell differentiation using 5HT-1A agonists” (Psychiatric Genomics, Inc., priority 2001, dated 2006).

System: cerebellar stem cells
Test: Neuronal differentiation of cerebellar stem cells (TuJ1 positive cells)
Assay type: cell-based, rat
From the text: Isolation and quantitation of cerebellar stem cells. Neural stem cells were isolated from rat embryos (obtained from Taconic) at the 19th day of gestation (E19). The rats were sacrificed by inhalation of excess carbon dioxide. The abdomen of the rat was cleaned with 70% ethanol and the uterus was removed quickly and aseptically on the bench top. The uterus was placed in ice cold PBS (GIBCO Cat. # 20012-027) in a 200-ml beaker.
The cerebellar tissue was dissected under a microscope according to the following procedure and collected in a 15-ml tube containing HBSS on ice. The dissection should be completed in 1–2 hours (optimally) and the pH of the HBSS should remain neutral. First, the neck of the embryos was severed towards the bottom and the heads were collected in cold PBS. Next, the skin and scalp was removed from neck and head of the embryo. The brain, including the cerebral cortex, midbrain, cerebellum and some of the spinal cord, was removed by dissection under a microscope and transfered into a clean dish with fresh, cold PBS. The cerebellar region was dissected and cleaned of extraneous tissue, including removal of the meninges, and transferred into cold HBSS in a clean 15 ml tube.
The tube containing the cerebellar tissue was centrifuged at 1,000 RPM for 2 min at 15 C., followed by slow, careful aspiration of the HBSS supernatant (care should be taken to avoid aspirating tissue). (It is best to limit the centrifugation steps as much as possible.) About 1 to 3 ml of DMEM/F12/N2 medium (see below) was immediately added to the remaining tissue; the volume of medium depends on the quantity of the dissected tissue. The tissue was gently triturated about 8 to 10 times using a P-1000 Pipetteman until the tissue was dissociated (as evidenced by cloudy solution), then the tube was incubated in the hood for 5 minutes at room temperature to permit settlement of small particles of undissociated tissue. The supernatant was then transferred into a fresh tube, taking care to avoid the smaller particles of tissue that remained at the bottom of the tube.
Plating and expansion of cerebellar stem cells. The triturated cell suspension of E19 rat cerebellum was seeded into pre-coated 10 cm dishes at 2×10^6 cells per dish. This is denoted as the P0 culture (passage 0). The cells were grown in 5 ml of DMEM/F12/N2 supplemented with 25 mg/L insulin and 10 ng/ml bFGF at 37 C, 5% CO2 and 90% humidity.
Cells were fed daily with 10 ng/ml bFGF. The medium was changed one day after the cells were seeded, and thereafter every other day. On about day 4 of the culture, or when cells reached 70% confluence, the culture was passaged (see “Passage of cerebellar stem cells” below) and seeded into 10 cm dishes at an initial density of 2×10^6 cells per dish. This is denoted as the P1 culture (passage 1). The passaged cells at P1 were grown in DMEM/F12/N2 medium supplemented with 25 mg/L insulin and 10 ng/ml bFGF. The medium was changed every other day.
After two days of culture, some cells were passaged into a P2 culture, and some were seeded in 12-well tissue culture plates for experimental use. One ml of DMEM/F12/N2 medium was used per well of a 12-well plate at 2×10^4 cells per well. Experimental treatments were initiated the day after passage.
Drug treatments. Stem cells obtained as described above were treated with drugs and subjected to differentiation protocols in the second passage. Cells were plated at a density of 1×10^4 cells per well of a 12-well petridish (Falcon).
Drug treatments were started on the next day. […] The WAY 100635 antagonist compound was used simultaneously with buspirone or serotonin in the blocking experiments.

## O=C1CC2(CCCC2)CC(=O)N1CCCCN1CCN(c2ncccn2)CC1 [buspirone, 8-[4-[4-(2-pyrimidinyl)-1-piperazinyl]butyl]-8-azaspiro[4,5]decane-7,9-dione]
10 nM, Table 2 experiment
  % Tuj 1 positive cells: 40.0 ± 3.7%
10 nM, Table 3 experiment
  % Tuj 1 positive cells: 30.7 ± 2.33%
30 nM, Table 2 experiment
  % Tuj 1 positive cells: 41.2 ± 6.7%
30 nM, Table 3 experiment
  % Tuj 1 positive cells: 37.4 ± 2.6%
100 nM, Table 2 experiment
  % Tuj 1 positive cells: 33.1 ± 2.6%
100 nM, Table 3 experiment
  % Tuj 1 positive cells: 46.6 ± 3.8%
100 nM, Table 5 experiment
  % TuJ1 positive cells: 54.4 ± 2.1%
300 nM, Table 2 experiment
  % Tuj 1 positive cells: 26.1 ± 3.9%
500 nM, Table 4 experiment
  % TuJ1 positive cells: 56.8 ± 7.1%
500 nM, Table 5 experiment
  % TuJ1 positive cells: 64.8 ± 2.1%
1000 nM, Table 2 experiment
  % Tuj 1 positive cells: 21.9 ± 3.9%
1000 nM, Table 3 experiment
  % Tuj 1 positive cells: 40.3 ± 2.8%
10 μM, Table 5 experiment
  % TuJ1 positive cells: 67.9 ± 10.2%
100 μM, Table 5 experiment
  % TuJ1 positive cells: 68.5 ± 6.5%
FIG. 1, lane 4
  concentration inducing the highest percentage of neuronal differentiation: ~100 nM
FIG. 1, lanes 2–5, dosage range 10 nM to 300 nM, about 6 days
  neuronal differentiation of neural stem cells (percent of neurons, TuJ1 positive): 40–55%
FIG. 2, lane 3, buspirone 500 nM, untreated control less than 20%
  differentiation of neurons: 50%
Concentrations from 10 nm to 100 um, Tables 2–5
  promotion of neuronal differentiation of neural stem cells (in words): effective at promoting neuronal differentiation
